Experimental data: PubChem BioAssay AID248 (DTP/NCI, 2004)
Values joined by “and” are separate entries in the source; they are usually repeats but may differ in a detail not shown here. Equal entries are not always repeated. Inconclusive results and toxic doses are left out. No stated cut-off is given here; in the data, active means T/C of 150% or more; inactive means T/C below 125%.

Tested on: L1210 leukemia ip in BDF1 mice, survival T/C
Assay: NCI In Vivo Anticancer Drug Screen. Data for tumor model L1210 Leukemia (intraperitoneal) in B6D2F1 (BDF1) mice
Settings: endpoint: mean survival time, higher = longer survival
Summary of the method: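 Ratio derived from survival: compound-dosed mice over vehicle-dosed mice, all bearing a transplantable tumor.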

[1] = dose: 100.0 mg/kg/injection, schedule: Q04DX002 (ip), vehicle: saline
[2] = dose: 100.0 mg/kg/injection, schedule: Q01DX009 (ip), vehicle: saline
[3] = dose: 200.0 mg/kg/injection, schedule: Q01DX009 (ip), vehicle: saline
[4] = dose: 100.0 mg/kg/injection, schedule: Q04DX002 (ip), vehicle: Klucel (hydroxypropylcellulose) (HPC)
[5] = dose: 200.0 mg/kg/injection, schedule: Q04DX002 (ip), vehicle: Klucel (hydroxypropylcellulose) (HPC)
[6] = dose: 400.0 mg/kg/injection, schedule: Q04DX002 (ip), vehicle: Klucel (hydroxypropylcellulose) (HPC)
[7] = dose: 100.0 mg/kg/injection, schedule: Q04DX003 (ip), vehicle: saline with Tween-80
[8] = dose: 200.0 mg/kg/injection, schedule: Q04DX003 (ip), vehicle: saline with Tween-80
[9] = dose: 400.0 mg/kg/injection, schedule: Q04DX003 (ip), vehicle: saline with Tween-80
[10] = dose: 100.0 mg/kg/injection, schedule: Q01DX009 (ip), vehicle: saline with Tween-80
[11] = dose: 200.0 mg/kg/injection, schedule: Q01DX009 (ip), vehicle: saline with Tween-80
[12] = dose: 400.0 mg/kg/injection, schedule: Q01DX009 (ip), vehicle: saline with Tween-80
[13] = dose: 200.0 mg/kg/injection, schedule: Q04DX002 (ip), vehicle: saline
[14] = dose: 400.0 mg/kg/injection, schedule: Q04DX002 (ip), vehicle: saline
[15] = dose: 25.0 mg/kg/injection, schedule: Q01DX009 (ip), vehicle: Klucel (hydroxypropylcellulose) (HPC)
[16] = dose: 50.0 mg/kg/injection, schedule: Q01DX009 (ip), vehicle: Klucel (hydroxypropylcellulose) (HPC)
[17] = dose: 100.0 mg/kg/injection, schedule: Q01DX009 (ip), vehicle: Klucel (hydroxypropylcellulose) (HPC)
[18] = dose: 100.0 mg/kg/injection, schedule: Q04DX003 (ip), vehicle: Klucel (hydroxypropylcellulose) (HPC)
[19] = dose: 200.0 mg/kg/injection, schedule: Q01DX009 (ip), vehicle: Klucel (hydroxypropylcellulose) (HPC)
[20] = dose: 200.0 mg/kg/injection, schedule: Q04DX003 (ip), vehicle: Klucel (hydroxypropylcellulose) (HPC)
[21] = dose: 400.0 mg/kg/injection, schedule: Q04DX003 (ip), vehicle: Klucel (hydroxypropylcellulose) (HPC)
[22] = dose: 400.0 mg/kg/injection, schedule: Q01DX009 (ip), vehicle: Klucel (hydroxypropylcellulose) (HPC)

Measured: T/C

CC1CC2OC(=O)C(O)(CO)C2CC2(C)C(=O)C=CC12 (configuration not stated)
inactive: dose: 25.0 mg/kg/injection, schedule: Q04DX002 (ip), vehicle: saline 102 % of control | dose: 50.0 mg/kg/injection, schedule: Q04DX002 (ip), vehicle: saline 124 % of control | [1] 120 % of control

CCCCCCCCC(=O)CCCC
inactive: [2] 103 % of control | [3] 100 % of control | dose: 400.0 mg/kg/injection, schedule: Q01DX009 (ip), vehicle: saline 100 % of control

CCOC(=O)CNc1cccc(C)c1
inactive: [4] 100 % of control | [5] 110 % of control | [6] 107 % of control

CCCCc1cn(S(=O)(=O)c2ccc(C)cc2)nn1
inactive: dose: 100.0 mg/kg/injection, schedule: Q04DX002 (ip), vehicle: saline with Tween-80 106 % of control | dose: 200.0 mg/kg/injection, schedule: Q04DX002 (ip), vehicle: saline with Tween-80 100 % of control | dose: 400.0 mg/kg/injection, schedule: Q04DX002 (ip), vehicle: saline with Tween-80 106 % of control

CCN(CC)CC(O)c1ccnc2c(N)cc(OC)cc12 (configuration not stated)
inactive: dose: 75.0 mg/kg/injection, schedule: Q01DX001 (ip), vehicle: acetone 104 % of control | dose: 150.0 mg/kg/injection, schedule: Q01DX001 (ip), vehicle: acetone 101 % of control

CCn1c(CC(O)(C(F)(F)F)C(F)(F)F)nc2ccccc21
inactive: [7] 101 % of control | [8] 98 % of control | [9] 101 % of control

CC1(C)C2CC=C(CCOC(=O)COc3cc(Cl)c(Cl)cc3Cl)C1C2 (configuration not stated)
inactive: dose: 160.0 mg/kg/injection, schedule: Q01DX Z (ip), vehicle: other 105 % of control | dose: 240.0 mg/kg/injection, schedule: Q01DX Z (ip), vehicle: other 109 % of control | dose: 350.0 mg/kg/injection, schedule: Q01DX Z (ip), vehicle: other 88 % of control

CN(N)c1ncnc2c1ncn2C1OC(CO)C(O)C1O (configuration not stated)
inactive: [7] 114 % of control | [8] 106 % of control | [9] 95 % of control

NC(CSCc1ccc([N+](=O)[O-])cc1)C(=O)O (configuration not stated)
inactive: dose: 100.0 mg/kg/injection, schedule: Q04DX003 (ip), vehicle: saline 102 % of control | dose: 200.0 mg/kg/injection, schedule: Q04DX003 (ip), vehicle: saline 105 % of control | dose: 400.0 mg/kg/injection, schedule: Q04DX003 (ip), vehicle: saline 96 % of control

NS(=O)(=O)c1ccc(Cl)cc1
inactive: dose: 50.0 mg/kg/injection, schedule: Q01DX009 (ip), vehicle: saline 95 % of control | [2] 102 % of control | [4] 103 % of control | [7] 104 % of control | [5] 103 % of control | [8] 112 % of control | [6] 103 % of control

CCCCCOC(=O)Nc1cccc(OC(=O)NC)c1
inactive: [10] 105 % of control | [11] 96 % of control | [12] 97 % of control

CC[C@@H](O)C[C@H]1CCC[C@@]2(C[C@@H]3OC(=O)/C=C/[C@@](C)(O)[C@@H](O)[C@H](C)[C@@H](O)[C@H](OC4CCC(N(C)C)C(C)O4)[C@@H](O)[C@](C)(O)CCCCC/C=C/[C@@H]4CC(C)(C)O[C@@]4(O)C[C@H](O2)[C@H]3C)O1 (some centres not stated)
inactive: dose: 0.25 mg/kg/injection, schedule: Q04DX003 (ip), vehicle: saline 104 % of control | dose: 0.5 mg/kg/injection, schedule: Q04DX003 (ip), vehicle: saline 111 % of control | dose: 1.0 mg/kg/injection, schedule: Q04DX003 (ip), vehicle: saline 94 % of control | dose: 150.0 micrograms/kg/injection, schedule: Q01DX Z (sc), vehicle: steriod suspending solution 108 % of control | dose: 230.0 micrograms/kg/injection, schedule: Q01DX Z (sc), vehicle: steriod suspending solution 102 % of control | dose: 345.0 micrograms/kg/injection, schedule: Q01DX Z (sc), vehicle: steriod suspending solution 91 % of control

O=C/C=C/c1cc(Cl)ccc1O
inactive: dose: 100.0 mg/kg/injection, schedule: Q01DX001 (ip), vehicle: saline 108 % of control | dose: 200.0 mg/kg/injection, schedule: Q01DX001 (ip), vehicle: saline 103 % of control

C=NN1CCOC1=O
inactive: [1] 106 % of control | [13] 91 % of control | [14] 111 % of control

COc1ccc(/C=N/NC(=O)CNC(=O)Nc2cccc(Cl)c2)cc1
inactive: dose: 50.0 mg/kg/injection, schedule: Q01DX009 (ip), vehicle: saline with Tween-80 87 % of control

O=C(CCCN1CCN(c2ccccn2)CC1)c1ccc(F)cc1
inactive: dose: 12.5 mg/kg/injection, schedule: Q01DX009 (ip), vehicle: Klucel (hydroxypropylcellulose) (HPC) 96 % of control and 106 % of control | [15] 97 % of control and 101 % of control and 106 % of control | dose: 25.0 mg/kg/injection, schedule: Q04DX003 (ip), vehicle: Klucel (hydroxypropylcellulose) (HPC) 97 % of control | [16] 108 % of control and 109 % of control and 114 % of control | dose: 50.0 mg/kg/injection, schedule: Q04DX003 (ip), vehicle: Klucel (hydroxypropylcellulose) (HPC) 108 % of control | [17] 108 % of control and 110 % of control | [18] 103 % of control | [19] 105 % of control and 110 % of control | [20] 123 % of control

Cc1ccc(S(C)=O)c(C)c1 (configuration not stated)
inactive: [2] 97 % of control | [3] 96 % of control

COc1ccc(C(=O)N=C(c2ccccc2)c2ccccc2)cc1
inactive: [10] 95 % of control | [18] 92 % of control | [11] 98 % of control | [20] 97 % of control | [12] 93 % of control | [21] 95 % of control

COc1ccc(C(=O)N/N=C/C(CC(O)CO)=N/NC(=O)c2ccc(OC)cc2)cc1 (configuration not stated)
inactive: [18] 95 % of control | [20] 92 % of control | [21] 96 % of control

Cc1ccc(S(=O)(=O)c2ccc(C)c(N)c2)cc1N
inactive: [1] 105 % of control | [13] 99 % of control | [14] 96 % of control

Cc1cccc(Cl)c1NC(=O)Nc1cc([N+](=O)[O-])ccc1O
inactive: [15] 91 % of control | [16] 91 % of control | [17] 96 % of control and 87 % of control | [19] 91 % of control | [22] 88 % of control

O=C(O)/C=C\C(=O)Nc1ccc2c(c1)Cc1cc(Cl)ccc1-2
inactive: [7] 92 % of control | [8] 87 % of control

CCCCCCCCOC(=O)CCCc1ccc(N(CCCl)CCCl)cc1
inactive: [1] 104 % of control | [13] 108 % of control | [14] 111 % of control

CS(=O)(=O)n1c(CO)nc2ccccc21
inactive: dose: 100.0 mg/kg/injection, schedule: Q01DX001 (ip), vehicle: carboxymethylcellulose (CMC) 101 % of control | dose: 200.0 mg/kg/injection, schedule: Q01DX001 (ip), vehicle: carboxymethylcellulose (CMC) 92 % of control | dose: 400.0 mg/kg/injection, schedule: Q01DX001 (ip), vehicle: carboxymethylcellulose (CMC) 97 % of control

O=C(Nc1ccc(Cl)c(Cl)c1)N(CCO)Cc1ccccc1
inactive: [17] 90 % of control | [19] 92 % of control | [22] 97 % of control
